Test results from patent US7833532B2, “Immunogenic lipopeptides comprising T-helper and cytotoxic T lymphocyte (CTL) epitopes” (The Council of The Queensland Institute of Medical Research, priority 2002, dated 2010).
“Also recorded” adds a separate entry of the source. Side chains are listed from the residue outwards. Ends that are not written are not given here.

Tests used:
splenocytes = assay: IFN-gamma producing splenocytes after immunization with L. monocytogenes CTL epitope peptides; type: in vivo, BALB/c mice; details: 9 nmoles subcutaneously, in vitro stimulation with CTL epitope, day 28
From the text: FIG. 11 is a graphical representation showing induction of interferon-gamma producing cells by lipopeptide. Peptide comprising a T-helper epitope and a CTL epitope of Listeria monocytogenes linked via the epsilon amino group of an internal lysine residue positioned between said epitopes to Pam2Cys (i.e. the peptide [P25]-Lys(Pam2Cys-Ser-Ser)-[LLO91-99] listed in FIG. 2 and based upon SEQ ID NO: 175), or lipopeptide(s) based on this structure in which Pam2Cys was linked through the epsilon amino group of said lysine, were used to inoculate mice. […] Splenocytes were obtained from the immunized animals and stimulated in vitro with either the isolated CTL epitope having the sequence set forth in SEQ ID NO: 172 (open bars) or no antigen (filled bars), and the number of (IFN-gamma) producing cells present was measured 28 days later. […]
5 BALB/c mice were inoculated with 9 nmoles of non-lipidated peptide ([P25]-Lys-[LLO91-99]), or lipidated peptide ([P25]-Lys(Pam2Cys-Ser-Ser)-[LLO91-99]) in which lipid was attached between the two epitopes at the approximate centre of the molecule, or with 1000 bacteria. […] The number of interferon-γ producing cells present in spleen was measured on day 28 following in vitro stimulation with the CTL epitope or no antigen. […]

Listeria monocytogenes = assay: Protection against L. monocytogenes challenge (colony forming units in liver); type: in vivo; details: 9 nmol subcutaneously, i.v. challenge 28 days after priming, CFU in liver; relative to non-lipidated peptide or PBS
From the text: FIG. 12 is a graphical representation showing enhanced protection against L. monocytogenes infection for mice immunized with the lipopeptide designated [P25]-Lys(Pam2Cys-Ser-Ser)-[LLO91-99] in FIG. 2 (based upon SEQ ID NO: 175). Five 5 BALB/c mice were inoculated intravenously with 1,000 bacteria (column 1), or immunized subcutaneously with PBS (column 2) or 9 nmol [P25]-Lys(Pam2Cys-Ser-Ser)-[LLO91-99] peptide (column 3) or 9 nmol non-lipidated [P25]-Lys-[LLO091-99] peptide (SEQ ID NO: 175; column 4), as indicated on the x-axis. Mice were challenged with whole bacteria and the number of colony forming units present in liver was measured 28 days post-challenge (ordinate).
Listeria monocytogenes EGD was cultured overnight at 37° C. on Horse Blood Agar (HBA) plates. The bacteria were washed off the plates using sterile PBS and the concentration adjusted to 5×10^3 Listeria cells/ml. Balb/c mice were infected intravenously with 1×10^3 Listeria cells. The dose was checked retrospectively by plating serial 10-fold dilutions on HBA plates.
Mice immunized s.c. with 9 nmol peptide immunogen or PBS, or i.v. with 1000 bacteria, were challenged by i.v. injection with bacteria 28 days after priming and the number of colony forming units of bacteria present in the liver determined 28 days after challenge.

Substance: [P25]-Lys(Pam2Cys-Ser-Ser)-[LLO91-99]: peptide [P25]-Lys-[LLO91-99] and a lipid of the Formula (IV) conjugated to the epsilon-amino group of the internal lysine (KLIPNASLIENCTKAELK([Ser-Ser-Pam2Cys])GYKDGNEYI)
- IFN-γ producing cells per million splenocytes relative to non-lipidated peptide or PBS control (splenocytes): about 15 fold
- protection against challenge with whole bacteria (Listeria monocytogenes): successfully provides protection; also recorded: significantly enhanced protection
